Assay results as given in patent publication US20030073846A1, “Aminoalcohol derivatives” (priority 2000, published 2003).
Counter-ions that a name gives are not always drawn.

Test system: anesthetized dog
Assay: Effect on the increase in intravesical pressure induced by carbachol in anesthetized dog
Assay type: in vivo
Details: for Increase in intravesical pressure: female Beagle dogs under halothane anesthesia, N = 3, P < 0.01 vs Control; for relaxation effect on the smooth muscle in the urinary bladder: conclusion in words from the test results of Test 1
Method: Effect on the increase in intravesical pressure induced by carbachol in anesthetized dog
Female Beagle dogs weighing 8.0-15.0 kg were fasted for 24 hours and maintained under halothane anesthesia. A 12F Foley catheter was lubricated with water soluble jelly, inserted into the urethral orifice and advanced approximately 10 cm until the balloon tip was placed well inside the bladder. The balloon was then inflated with 5 ml of room air and catheter slowly withdrawn just part the first resistance that is felt at the bladder neck. Urine was completely drained out through the catheter, and 30 ml of biological saline was infused. The catheter was connected to pressure transducer, and intravesical pressure was continuously recorded. The test compound was injected intravenously at five minutes before the administration of carbachol (1.8 μg/kg).

Structure (SMILES) | Increase in intravesical pressure (0.032 mg/kg intravenously five minutes before carbachol (1.8 μg/kg), Control 6.8 ± 1.1) [mmHg] | relaxation effect on the smooth muscle in the urinary bladder | Increase in intravesical pressure (0.100 mg/kg intravenously five minutes before carbachol (1.8 μg/kg), Control 6.9 ± 0.7) [mmHg]
OC[C@H](Cc1ccc(O)cc1)NC[C@H](O)COc1ccccc1 [Test compound (1), (S)-1-Phenoxy-3-[[(S)-1-hydroxy-3-(4-hydroxyphenyl)-2-propyl]amino]-2-propanol] | 2.0 ± 0.3 | possess a relaxation effect on the smooth muscle in the urinary bladder | –
CC(C)(Cc1ccc(Oc2ccc(C(N)=O)cn2)cc1)NC[C@H](O)COc1cccc2[nH]c3ccccc3c12 [Test compound (2), (S)-4-[2-Hydroxy-3-[[2-[4-(5-carbamoyl-2-pyridyloxy)phenyl]-1,1-dimethylethyl]amino]propoxy]-carbazole hydrochloride] | – | possess a relaxation effect on the smooth muscle in the urinary bladder | 4.3 ± 0.3
